Legend:
[1] = Observation during study of specific and general pharmacological activity; assay type: in vivo, mice, guinea pigs, rats, rabbits; conditions: during the study and 1-6 month observation period
Experimental: In the study of specific and general pharmacological activity, the test animals were mice, guinea pigs, rats, rabbits. Some tests were performed using lymphocyte or monocyte cultures of the peritheric blood of donors and patients with different diseases accompanied by immunity disorders.

Acute toxicity in dogs = assay type: in vivo; conditions: 6 dogs
Experimental: To establish the safety of use of the peptides, toxicity tests were performed. Toxicity tests where performed in accordance Pharmacological Committee Russian Federation (RF) "guidelines for the pre-clinical study of general toxic activity of new pharmacological compounds". M., 1985.
Acute toxicity was studied in 20 guinea pigs and 6 dogs. […] The drug has a wide therapeutic range.

CFU-S = assay: Regeneration of the CFU-S population in bone marrow of irradiated mice (4 Gy); assay type: in vivo
From the text: a) Scheme 1: mice received the peptide immediately after irradiation, daily. The mice were divided into groups: a control group--irradiated mice (4 Gy), and test groups--irradiated mice (4 Gy) received the peptide 1, 2, 3, and 4 times daily. Blood samples were taken four hours after the last peptide injection and on the 7th, 10th, and 16th day after the irradiation. Determined were total count of nucleated blood cells (NC) and lymphocyte percentage of them; nucleated cells and the CFU-S population in femoral bone marrow were counted on the 4th, 8th, and the 14th day.
From each group at least five mice were killed, their bone marrow was taken out and used to prepare the cell suspension, which was injected to lethally irradiated mice. After 9 days, CFU-S was counted in irradiated (4 Gy) donors receiving the peptide by counting the colonies grown on spleen. It was noted that with intramuscular administration of the peptide the CFU-S count in irradiated mice bone marrow was steadily growing starting from the 4th day, leaving the control CFU-S far behind.
b) According to scheme 2, the peptide injections were made starting from the 3rd day after the irradiation, at the same time of maximum depletion of the pool of mature nucleated cells and the bone marrow. The groups of mice were formed in the same way as in the previous scheme. Blood samples were taken 4 hours after the last injection i.e. on day 6, as well as on days 11, 14, 18, 21. Tables 9 and 10 present the data on karyocyte and lymphocyte counts in blood (per 1 mm^3) of mice treated according to scheme 2.

[2] = Chronic toxicity: peritheric blood and internals, 30 days, guinea pigs; assay type: in vivo; conditions: once daily for 30 days
Experimental: II.1 The H-Ile-Glu-Trp-OH effect on the composition and properties of the peritheric blood, the morphological state of the internals.
The drug was injected once daily for 30 days.
The test animals were 20 rabbits and 40 guinea pigs.

CFU-S-8 and CFU-S-12 = assay: Cytostatic (Cytosine-Arabinoside)-induced cytopenia: karyocytes, CFU-S-8, CFU-S-12 in bone marrow; assay type: in vivo, mice; conditions: donor bone marrow; CA 20 mg/kg i.p. once; N 10 μg/kg once daily, three injections
Experimental: Used as a cytostatic, Cytosine-Arabinoside (CA) was intraperitoneally injected to donor mice once in the dose of 20 mg/kg. The peptide was given according to the following scheme: 10 μg/kg once daily, three injections starting from the first hour after CA. Intact mice received H-Ile-Glu-Trp-OH in the same doses and according to the same schedule. On day 8 after the cytostatic injection, determined were karyocyte count in the donor bone marrow and the content of hemopoietic progenitors of different polipotencies: committed CFU-S-8 and CFU-S-12. CFU-8 are committed stem cells which later undergo differentiation. CFU-12 are the polypotent cells, from which stem cells can be recruited (i.e. they maintain the pool of stem cells). This is a slowly proliferating cell population, mainly in G phase. That is why it is important to evaluate the effect of a preparation on the pools of both committed (CFU-8) and polypotent (CFU- 12) cells. To this end, bone marrow was extracted from donor's femoral bones and injected to lethally irradiated recipients. After the cell injections, every test group was divided into 2 subgroups: some animals were killed on day 8, the other on day 12. Spleens were taken out and the colonies were counted. The tests were carried out on 105 mice.

tumor cells EL-4 = assay: Thymoma EL-4 cells incubated with peptide and heated, transplanted to mice: tumor size; assay type: in vivo, C57B1 mice; conditions: for Tumor size: EL-4, 13th day
Experimental: Incubation of the tumor cells with the tested drugs were performed the same way as described above in the experiments with OU. After 18-hour incubation, the cells were washed in the medium RPMI, and then resuspended in the concentration of 5 ml/1 ml in plastic test tubes of total volume of 2 ml each. Then the cells were heated for 1 hour at 43 degrees Celsius, and transplanted under the back skin of the mice C57B1. The growth of the tumor was examined the same way as described above.

Substance: H-Ile-Glu-Trp-OH
- toxic or allergic reactions [1]: no toxic or allergic reactions were observed
- acute toxicity (Acute toxicity in dogs): No toxic effects were observed
- cellular composition of bone marrow (CFU-S; scheme 1, i.m.): did not affect
- regeneration of the CFU-S population (CFU-S; scheme 1, i.m. (FIG. 1)): markedly stimulated regeneration of the CFU-S population
- CFU-S (absolute) in femoral bone marrow (CFU-S; scheme 2, 1 Time, Day 7): 459 ± 26
- CFU-S (absolute) in femoral bone marrow (CFU-S; scheme 2, 1 Time, Day 11): 858 ± 67
- CFU-S (absolute) in femoral bone marrow (CFU-S; scheme 2, 1 Time, Day 14): 1197 ± 75
- CFU-S (absolute) in femoral bone marrow (CFU-S; scheme 2, 2 Time, Day 7): 298 ± 27
- CFU-S (absolute) in femoral bone marrow (CFU-S; scheme 2, 2 Time, Day 11): 846 ± 44
- CFU-S (absolute) in femoral bone marrow (CFU-S; scheme 2, 2 Time, Day 14): 902 ± 56
- CFU-S (absolute) in femoral bone marrow (CFU-S; scheme 2, 3 Time, Day 7): 305 ± 33
- CFU-S (absolute) in femoral bone marrow (CFU-S; scheme 2, 3 Time, Day 11): 1077 ± 56
- CFU-S (absolute) in femoral bone marrow (CFU-S; scheme 2, 3 Time, Day 14): 1166 ± 68
- CFU-S (absolute) in femoral bone marrow (CFU-S; scheme 2, 4 Time, Day 7): 431 ± 48
- CFU-S (absolute) in femoral bone marrow (CFU-S; scheme 2, 4 Time, Day 11): 1147 ± 55
- CFU-S (absolute) in femoral bone marrow (CFU-S; scheme 2, 4 Time, Day 14): 1434 ± 89
- pathologic changes in the body or peritheric blood [2]: did not cause any pathologic changes
- Day 8 COUNT CFU-S-8 (CFU-S-8 and CFU-S-12): 2805 ± 232
- Day 8 COUNT CFU-S-12 (CFU-S-8 and CFU-S-12): 2930 ± 152
- Day 8 COUNT Karyocytes (CFU-S-8 and CFU-S-12): 23.0 ± 0.9 × 10^6
- Tumor size (tumor cells EL-4; + Heating (1 hour at 43 degrees Celsius)): No Tumor
- Tumor size (tumor cells EL-4; no heating): 188.7 mm squared
- tumor formation (tumor cells EL-4; in vitro treatment followed by heating, 21st day): no tumor formation was observed

— patent US6159940A, “Method for modulating hemopoiesis” (Immunotech Developments Inc., priority 1999, dated 2000)
